Laboratory results as given in patent US20090215778A1, “Alpha-substituted Arylmethyl Piperazine Pyrazolo [1,5-alpha]Pyrimidine Amide Derivatives” (priority 2007, published 2009).

Assays:
HIV-1, NL4-3 strain = assay: Virus infection assay (virus entry and single-cycle infection); type: cell-based; settings: Human immunodeficiency virus 1, NL43, TZM-b1, read-out: Nl4
Summary of the method: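 TZM-b1 cells (CD4, CXCR4, CCR5; LTR-driven lacZ/luciferase reporters) were infected with HIV-1 NL4-3 (MOI 0.01) with 80 μg/mL DEAE-dextran in the presence of test compound, 4 h at 37 °C before adding complete medium. Infection was quantified one day post-infection as chemiluminescent β-galactosidase signal.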

[1] = biological target: T1, HIV Env six-helix bundle (6HB) structure (Human immunodeficiency virus type 1 group M subtype B, UniProt P04579); assay: Six-helix bundle (6HB) assay; type: cell-based, HIV-1 (strain RF)
T1 construct: H9 cells chronically infected with HIV-1 (H9/HIV-1RF); endogenous in cells; host or cells: H9 cells chronically infected with HIV-1 strain RF (Env is made from the virus in the infected cells, not by transfection)
T1 sequence (P04579 32-519): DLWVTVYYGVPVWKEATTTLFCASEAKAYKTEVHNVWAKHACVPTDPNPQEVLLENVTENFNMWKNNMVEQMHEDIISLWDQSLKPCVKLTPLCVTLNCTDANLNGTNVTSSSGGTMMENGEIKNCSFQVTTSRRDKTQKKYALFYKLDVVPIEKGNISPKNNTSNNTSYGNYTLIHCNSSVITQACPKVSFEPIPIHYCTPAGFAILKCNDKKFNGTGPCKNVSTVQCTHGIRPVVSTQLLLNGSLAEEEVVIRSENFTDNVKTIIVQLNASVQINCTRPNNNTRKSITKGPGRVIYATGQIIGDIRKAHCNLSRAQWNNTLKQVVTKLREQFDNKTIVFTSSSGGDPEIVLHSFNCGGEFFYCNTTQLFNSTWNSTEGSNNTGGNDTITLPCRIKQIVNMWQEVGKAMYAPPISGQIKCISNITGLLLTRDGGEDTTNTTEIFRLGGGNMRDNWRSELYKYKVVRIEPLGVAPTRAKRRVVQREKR
T1 sequence (P04579 520-865): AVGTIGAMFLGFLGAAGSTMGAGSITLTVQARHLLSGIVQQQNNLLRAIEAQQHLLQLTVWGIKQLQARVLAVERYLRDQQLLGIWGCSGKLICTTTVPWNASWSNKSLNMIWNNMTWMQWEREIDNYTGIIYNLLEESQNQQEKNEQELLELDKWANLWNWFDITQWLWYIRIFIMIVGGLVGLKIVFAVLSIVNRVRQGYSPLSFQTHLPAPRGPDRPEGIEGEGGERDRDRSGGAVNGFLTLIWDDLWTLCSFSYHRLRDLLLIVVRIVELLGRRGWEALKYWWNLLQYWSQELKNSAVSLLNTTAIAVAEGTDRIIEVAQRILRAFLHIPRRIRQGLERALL
Summary of the method: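 Chronically HIV-1 RF-infected H9 cells (12-40 days post-infection), 2.5×10^5 per well, were preincubated with compound for 30 min at 37 °C. sCD4 at 1 μg/mL was added for 1 h to trigger Env changes. 6HB-specific rabbit serum (1 h, 37 °C) was then added, followed by PE anti-rabbit (45 min, 4 °C), with flow cytometric fluorescence read-out.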

Row | Structure (SMILES) | IC50 (HIV-1, NL4-3 strain) | IC50 [1]
1 | COc1ccc(-c2nc3c(C(=O)N4CCN(C(CO)c5cccc(OC)c5F)C[C@H]4C)cnn3c(C(F)(F)F)c2C)cc1 (stereo partly drawn) [methanone, [(2R)-4-[1-(2-fluoro-3-methoxyphenyl)-2-hydroxyethyl]-2-methyl-1-piperazinyl][5-(4-methoxyphenyl)-6-methyl-7-(trifluoromethyl)pyrazolo[1,5-α]pyrimidin-3-yl]-] | < 1 µM | < 1 µM
2 | COc1ccc(-c2nc3c(C(=O)N4CCN(C(CO)c5cccc(NC(=O)C6CC6)c5)C[C@H]4C)cnn3c(C(F)(F)F)c2C)cc1 (stereo partly drawn) [cyclopropanecarboxamide, N-[3-[2-hydroxy-1-[(3R)-4-[[5-(4-methoxyphenyl)-6-methyl-7-(trifluoromethyl)pyrazolo[1,5-α]pyrimidin-3-yl]carbonyl]-3-methyl-1-piperazinyl]ethyl]phenyl]-] | < 1 µM | < 1 µM
3 | CCOc1ncccc1C(CO)N1CCN(C(=O)c2cnn3c(C(F)(F)F)c(C)c(-c4ccc(OC)cc4)nc23)[C@H](C)C1 (stereo partly drawn) [methanone, [(2R)-4-[1-(2-ethoxy-3-pyridinyl)-2-hydroxyethyl]-2-methyl-1-piperazinyl][5-(4-methoxyphenyl)-6-methyl-7-(trifluoromethyl)pyrazolo[1,5-α]pyrimidin-3-yl]-] | < 1 µM | < 1 µM
4 | COc1ccc(-c2nc3c(C(=O)N4CCN([C@H](CO)c5ccccc5)C[C@H]4C)cnn3c(C(F)(F)F)c2C)cc1 [methanone, [(2R)-4-[(1S)-2-hydroxy-1-phenylethyl]-2-methyl-1-piperazinyl][5-(4-methoxyphenyl)-6-methyl-7-(trifluoromethyl)pyrazolo[1,5-α]pyrimidin-3-yl]-] | < 1 µM | < 1 µM
5 | COc1ccc(-c2nc3c(C(=O)N4CCN([C@@H](CO)c5cscc5C)C[C@H]4C)cnn3c(C(F)(F)F)c2C)cc1 [methanone, [(2R)-4-[(1R)-2-hydroxy-1-(4-methyl-3-thienyl)ethyl]-2-methyl-1-piperazinyl][5-(4-methoxyphenyl)-6-methyl-7-(trifluoromethyl)pyrazolo[1,5-α]pyrimidin-3-yl]-] | < 1 µM | < 1 µM
6 | COc1ccc(-c2nc3c(C(=O)N4CCN([C@H](c5ccccc5)C(F)(F)F)C[C@H]4C)cnn3c(C(F)(F)F)c2C)cc1 [methanone, [5-(4-methoxyphenyl)-6-methyl-7-(trifluoromethyl)pyrazolo[1,5-α]pyrimidin-3-yl][(2R)-2-methyl-4-[(1R)-2,2,2-trifluoro-1-phenylethyl]-1-piperazinyl]-] | < 1 µM | < 1 µM
7 | COc1ccc(-c2nc3c(C(=O)N4CCN(C(CO)c5cccc(NC(=O)C(C)C)c5)C[C@H]4C)cnn3c(C(F)(F)F)c2C)cc1 (stereo partly drawn) [propanamide, N-[3-[2-hydroxy-1-[(3R)-4-[[5-(4-methoxyphenyl)-6-methyl-7-(trifluoromethyl)pyrazolo[1,5-α]pyrimidin-3-yl]carbonyl]-3-methyl-1-piperazinyl]ethyl]phenyl]-2-methyl-] | 1.1 to 10 µM | < 1 µM
8 | COc1ccc2c(c1)CCc1c-2nc2c(C(=O)N3CCN([C@@H](CO)c4ccccc4)C[C@H]3C)cnn2c1C(F)(F)F [methanone, [5,6-dihydro-3-methoxy-7-(trifluoromethyl)benzo[h]pyrazolo[5,1-b]quinazolin-11-yl][(2R)-4-[(1R)-2-hydroxy-1-phenylethyl]-2-methyl-1-piperazinyl]-] | < 1 µM | < 1 µM
9 | COc1ccc(-c2nc3c(C(=O)N4CCN([C@@H](C)c5cccc(NC(N)=O)c5)C[C@H]4C)cnn3c(C(F)(F)F)c2C)cc1 [urea, N-[3-[(1S)-1-[(3R)-4-[[5-(4-methoxyphenyl)-6-methyl-7-(trifluoromethyl)pyrazolo[1,5-α]pyrimidin-3-yl]carbonyl]-3-methyl-1-piperazinyl]ethyl]phenyl]-] | < 1 µM | < 1 µM
10 | COc1ccc(-c2nc3c(C(=O)N4CCN(C(CO)c5ccccc5N)C[C@H]4C)cnn3c(C(F)(F)F)c2C)cc1 (stereo partly drawn) [methanone, [(2R)-4-[1-(2-aminophenyl)-2-hydroxyethyl]-2-methyl-1-piperazinyl][5-(4-methoxyphenyl)-6-methyl-7-(trifluoromethyl)pyrazolo[1,5-α]pyrimidin-3-yl]-] | 1.1 to 10 µM | 1.1 to 10 µM
11 | COc1ccc(-c2nc3c(C(=O)N4CCN(C(CO)c5ccc(F)cc5)C[C@H]4C)cnn3c(C(F)(F)F)c2C)cc1 (stereo partly drawn) [methanone, [(2R)-4-[1-(4-fluorophenyl)-2-hydroxyethyl]-2-methyl-1-piperazinyl][5-(4-methoxyphenyl)-6-methyl-7-(trifluoromethyl)pyrazolo[1,5-α]pyrimidin-3-yl]-] | < 1 µM | < 1 µM
12 | COc1ccc(-c2nc3c(C(=O)N4CCN([C@H](C)c5cc(F)cc(F)c5F)C[C@H]4C)cnn3c(C(F)(F)F)c2C)cc1 [methanone, [5-(4-methoxyphenyl)-6-methyl-7-(trifluoromethyl)pyrazolo[1,5-α]pyrimidin-3-yl][(2R)-2-methyl-4-[(1R)-1-(2,3,5-trifluorophenyl)ethyl]-1-piperazinyl]-] | < 1 µM | < 1 µM
13 | COc1ccc(-c2nc3c(C(=O)N4CCN([C@@H](C)c5ccccc5C#N)C[C@H]4C)cnn3c(C(F)(F)F)c2C)cc1 [benzonitrile, 2-[(1S)-1-[(3R)-4-[[5-(4-methoxyphenyl)-6-methyl-7-(trifluoromethyl)pyrazolo[1,5-α]pyrimidin-3-yl]carbonyl]-3-methyl-1-piperazinyl]ethyl]-] | < 1 µM | < 1 µM
14 | COc1ccc(-c2nc3c(C(=O)N4CCN([C@@H](C)c5sccc5Cl)C[C@H]4C)cnn3c(C(F)(F)F)c2C)cc1 [methanone, [(2R)-4-[(1S)-1-(3-chloro-2-thienyl)ethyl]-2-methyl-1-piperazinyl][5-(4-methoxyphenyl)-6-methyl-7-(trifluoromethyl)pyrazolo[1,5-α]pyrimidin-3-yl]-] | < 1 µM | < 1 µM
15 | COc1ccc(-c2nc3c(C(=O)N4CCN(C(CO)c5cc(F)cc(F)c5F)C[C@H]4C)cnn3c(C(F)(F)F)c2C)cc1 (stereo partly drawn) [methanone, [(2R)-4-[2-hydroxy-1-(2,3,5-trifluorophenyl)ethyl]-2-methyl-1-piperazinyl][5-(4-methoxyphenyl)-6-methyl-7-(trifluoromethyl)pyrazolo[1,5-α]pyrimidin-3-yl]-] | < 1 µM | < 1 µM
16 | COc1ccc(-c2nc3c(C(=O)N4CCN(C(CO)c5ccc(OC)nc5OC)C[C@H]4C)cnn3c(C(F)(F)F)c2C)cc1 (stereo partly drawn) [methanone, [(2R)-4-[1-(2,6-dimethoxy-3-pyridinyl)-2-hydroxyethyl]-2-methyl-1-piperazinyl][5-(4-methoxyphenyl)-6-methyl-7-(trifluoromethyl)pyrazolo[1,5-α]pyrimidin-3-yl]-] | < 1 µM | < 1 µM
17 | COc1ccc(-c2nc3c(C(=O)N4CCN([C@H](CO)c5cscc5C)C[C@H]4C)cnn3c(C(F)(F)F)c2C)cc1 [methanone, [(2R)-4-[(1S)-2-hydroxy-1-(4-methyl-3-thienyl)ethyl]-2-methyl-1-piperazinyl][5-(4-methoxyphenyl)-6-methyl-7-(trifluoromethyl)pyrazolo[1,5-α]pyrimidin-3-yl]-] | < 1 µM | < 1 µM
18 | COc1ccc(-c2nc3c(C(=O)N4CCN([C@H](CO)c5ccc(Cl)s5)C[C@H]4C)cnn3c(C(F)(F)F)c2C)cc1 [methanone, [(2R)-4-[(1R)-1-(5-chloro-2-thienyl)-2-hydroxyethyl]-2-methyl-1-piperazinyl][5-(4-methoxyphenyl)-6-methyl-7-(trifluoromethyl)pyrazolo[1,5-α]pyrimidin-3-yl]-] | < 1 µM | < 1 µM
19 | COc1ccc(-c2nc3c(C(=O)N4CCN([C@H](CO)c5c(C)noc5C)C[C@H]4C)cnn3c(C(F)(F)F)c2C)cc1 [methanone, [(2R)-4-[(1S)-1-(3,5-dimethyl-4-isoxazolyl)-2-hydroxyethyl]-2-methyl-1-piperazinyl][5-(4-methoxyphenyl)-6-methyl-7-(trifluoromethyl)pyrazolo[1,5-α]pyrimidin-3-yl]-] | 1.1 to 10 µM | 1.1 to 10 µM
20 | COc1ccc(-c2nc3c(C(=O)N4CCN([C@@H](CO)c5ccc(C(C)=O)s5)C[C@H]4C)cnn3c(C(F)(F)F)c2C)cc1 [ethanone, 1-[5-[(1S)-2-hydroxy-1-[(3R)-4-[[5-(4-methoxyphenyl)-6-methyl-7-(trifluoromethyl)pyrazolo[1,5-α]pyrimidin-3-yl]carbonyl]-3-methyl-1-piperazinyl]ethyl]-2-thienyl]-] | 1.1 to 10 µM | < 1 µM
21 | COc1ccc(-c2nc3c(C(=O)N4CCN(C(CO)c5ccccc5Cl)C[C@H]4C)cnn3c(C(F)(F)F)c2C)cc1 (stereo partly drawn) [methanone, [(2R)-4-[1-(2-chlorophenyl)-2-hydroxyethyl]-2-methyl-1-piperazinyl][5-(4-methoxyphenyl)-6-methyl-7-(trifluoromethyl)pyrazolo[1,5-α]pyrimidin-3-yl]-] | < 1 µM | < 1 µM
22 | CCc1ccc(-c2nc3c(C(=O)N4CCN([C@@H](CO)c5ccccc5)C[C@H]4C)cnn3c(C(F)(F)F)c2C)cc1 [methanone, [5-(4-ethylphenyl)-6-methyl-7-(trifluoromethyl)pyrazolo[1,5-α]pyrimidin-3-yl][(2R)-4-[(1R)-2-hydroxy-1-phenylethyl]-2-methyl-1-piperazinyl]-] | < 1 µM | < 1 µM
